Source: publication PMC4042160, “In silico, in vitro and cellular analysis with a kinome-wide inhibitor panel correlates cellular LRRK2 dephosphorylation to inhibitor activity on LRRK2” (Frontiers in Molecular Neuroscience, 2014)
Values joined by “and” are separate entries in the source; they are usually repeats but may differ in a detail not shown here. Equal values may be shown once.

Legend:
[1] = biological target: T1, GST-tagged truncated LRRK2 containing residues 970 to 2527 (Homo sapiens, UniProt Q5S007); assay: In vitro LRRKtide peptide-substrate kinase assay, single dose testing (10 μM); type: biochemical; details: for % LRRKtide phosphorylation relative to solvent: LRRKtide assay @ 10 μM inhibitor, GST-LRRK2 970-2527, 10 μM ATP, mean, N = 3, solvent control = 100%
T1 construct: GST-tagged truncated LRRK2 containing residues 970 to 2527 (Life Technologies); purchased Life Technologies

LRRK2 phospho-Ser935 = biological target: T2, LRRK2 phospho-Ser935 (Homo sapiens, UniProt Q5S007); assay: Cellular LRRK2 phosphoserine 935 dephosphorylation spotblot assay in SH-SY5Y cells stably expressing 3xFlag-LRRK2; type: cell-based; details: for Phosphorylation level relative to solvent (%) (cellular pS935 assay): @ 5 μM for 2 h, SH-SY5Y stably expressing LRRK2, pS935/total LRRK2
T2 construct: expressed in transfected cells
T2 sequence (Q5S007 whole entry): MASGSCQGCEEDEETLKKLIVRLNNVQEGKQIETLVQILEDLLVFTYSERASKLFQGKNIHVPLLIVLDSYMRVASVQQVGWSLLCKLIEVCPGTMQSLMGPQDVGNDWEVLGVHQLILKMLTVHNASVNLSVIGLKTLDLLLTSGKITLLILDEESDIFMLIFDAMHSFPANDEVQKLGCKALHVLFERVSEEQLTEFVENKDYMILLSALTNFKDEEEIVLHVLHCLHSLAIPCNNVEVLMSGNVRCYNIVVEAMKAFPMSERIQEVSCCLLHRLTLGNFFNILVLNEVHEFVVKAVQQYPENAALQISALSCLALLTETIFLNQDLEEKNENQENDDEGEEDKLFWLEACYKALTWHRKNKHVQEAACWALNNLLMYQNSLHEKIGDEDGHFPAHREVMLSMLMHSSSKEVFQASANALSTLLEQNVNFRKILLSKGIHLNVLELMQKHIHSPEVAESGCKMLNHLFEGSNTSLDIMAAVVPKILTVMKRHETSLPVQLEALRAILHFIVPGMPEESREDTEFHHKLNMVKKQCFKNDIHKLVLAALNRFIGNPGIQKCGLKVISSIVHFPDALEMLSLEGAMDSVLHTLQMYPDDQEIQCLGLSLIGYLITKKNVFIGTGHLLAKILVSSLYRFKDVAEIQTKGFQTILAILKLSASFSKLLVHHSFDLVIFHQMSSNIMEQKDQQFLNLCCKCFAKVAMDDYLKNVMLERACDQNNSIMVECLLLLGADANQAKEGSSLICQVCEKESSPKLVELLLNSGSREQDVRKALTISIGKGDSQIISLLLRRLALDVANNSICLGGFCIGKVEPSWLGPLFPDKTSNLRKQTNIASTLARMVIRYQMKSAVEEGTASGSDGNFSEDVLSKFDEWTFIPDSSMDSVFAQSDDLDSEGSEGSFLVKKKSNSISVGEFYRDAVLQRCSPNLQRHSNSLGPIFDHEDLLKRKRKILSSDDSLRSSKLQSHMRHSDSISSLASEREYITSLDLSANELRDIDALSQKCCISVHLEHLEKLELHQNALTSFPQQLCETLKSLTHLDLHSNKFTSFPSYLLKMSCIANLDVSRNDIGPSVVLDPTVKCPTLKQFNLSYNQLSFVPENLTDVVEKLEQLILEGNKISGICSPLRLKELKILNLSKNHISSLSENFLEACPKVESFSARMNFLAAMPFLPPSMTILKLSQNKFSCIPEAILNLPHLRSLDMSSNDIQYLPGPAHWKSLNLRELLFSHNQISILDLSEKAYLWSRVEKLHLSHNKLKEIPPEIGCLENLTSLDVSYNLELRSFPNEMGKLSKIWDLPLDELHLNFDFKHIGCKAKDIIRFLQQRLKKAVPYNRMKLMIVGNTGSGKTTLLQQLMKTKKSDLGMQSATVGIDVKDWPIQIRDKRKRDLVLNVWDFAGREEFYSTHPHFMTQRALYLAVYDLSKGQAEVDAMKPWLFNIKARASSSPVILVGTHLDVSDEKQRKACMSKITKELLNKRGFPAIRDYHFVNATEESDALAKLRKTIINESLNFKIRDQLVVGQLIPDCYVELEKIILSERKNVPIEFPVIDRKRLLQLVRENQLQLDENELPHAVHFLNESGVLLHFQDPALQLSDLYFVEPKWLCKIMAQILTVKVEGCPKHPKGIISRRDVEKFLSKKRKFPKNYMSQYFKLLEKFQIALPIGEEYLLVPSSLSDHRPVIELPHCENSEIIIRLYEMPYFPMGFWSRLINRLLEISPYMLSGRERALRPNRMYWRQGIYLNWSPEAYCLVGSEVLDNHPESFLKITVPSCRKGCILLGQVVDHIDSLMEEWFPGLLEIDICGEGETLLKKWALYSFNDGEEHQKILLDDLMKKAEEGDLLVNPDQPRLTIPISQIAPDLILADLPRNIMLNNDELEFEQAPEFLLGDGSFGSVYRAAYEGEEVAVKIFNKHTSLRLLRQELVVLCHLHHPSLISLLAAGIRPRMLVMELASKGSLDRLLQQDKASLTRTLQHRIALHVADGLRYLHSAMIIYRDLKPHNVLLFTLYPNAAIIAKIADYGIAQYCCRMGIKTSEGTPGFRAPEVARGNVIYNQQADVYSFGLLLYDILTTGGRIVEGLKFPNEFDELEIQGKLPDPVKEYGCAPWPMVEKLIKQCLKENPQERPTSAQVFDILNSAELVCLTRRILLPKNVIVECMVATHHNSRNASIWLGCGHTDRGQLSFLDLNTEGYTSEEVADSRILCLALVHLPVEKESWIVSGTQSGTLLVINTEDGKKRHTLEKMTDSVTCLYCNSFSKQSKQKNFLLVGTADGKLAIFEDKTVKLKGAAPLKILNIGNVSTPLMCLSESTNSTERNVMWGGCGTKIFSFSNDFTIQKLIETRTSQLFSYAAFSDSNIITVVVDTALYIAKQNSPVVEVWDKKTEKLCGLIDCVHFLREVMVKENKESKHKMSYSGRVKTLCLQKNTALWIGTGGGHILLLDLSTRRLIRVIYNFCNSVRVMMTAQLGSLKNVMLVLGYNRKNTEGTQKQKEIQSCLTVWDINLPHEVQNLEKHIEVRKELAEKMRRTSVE

T1 sequence (Q5S007 970-2527): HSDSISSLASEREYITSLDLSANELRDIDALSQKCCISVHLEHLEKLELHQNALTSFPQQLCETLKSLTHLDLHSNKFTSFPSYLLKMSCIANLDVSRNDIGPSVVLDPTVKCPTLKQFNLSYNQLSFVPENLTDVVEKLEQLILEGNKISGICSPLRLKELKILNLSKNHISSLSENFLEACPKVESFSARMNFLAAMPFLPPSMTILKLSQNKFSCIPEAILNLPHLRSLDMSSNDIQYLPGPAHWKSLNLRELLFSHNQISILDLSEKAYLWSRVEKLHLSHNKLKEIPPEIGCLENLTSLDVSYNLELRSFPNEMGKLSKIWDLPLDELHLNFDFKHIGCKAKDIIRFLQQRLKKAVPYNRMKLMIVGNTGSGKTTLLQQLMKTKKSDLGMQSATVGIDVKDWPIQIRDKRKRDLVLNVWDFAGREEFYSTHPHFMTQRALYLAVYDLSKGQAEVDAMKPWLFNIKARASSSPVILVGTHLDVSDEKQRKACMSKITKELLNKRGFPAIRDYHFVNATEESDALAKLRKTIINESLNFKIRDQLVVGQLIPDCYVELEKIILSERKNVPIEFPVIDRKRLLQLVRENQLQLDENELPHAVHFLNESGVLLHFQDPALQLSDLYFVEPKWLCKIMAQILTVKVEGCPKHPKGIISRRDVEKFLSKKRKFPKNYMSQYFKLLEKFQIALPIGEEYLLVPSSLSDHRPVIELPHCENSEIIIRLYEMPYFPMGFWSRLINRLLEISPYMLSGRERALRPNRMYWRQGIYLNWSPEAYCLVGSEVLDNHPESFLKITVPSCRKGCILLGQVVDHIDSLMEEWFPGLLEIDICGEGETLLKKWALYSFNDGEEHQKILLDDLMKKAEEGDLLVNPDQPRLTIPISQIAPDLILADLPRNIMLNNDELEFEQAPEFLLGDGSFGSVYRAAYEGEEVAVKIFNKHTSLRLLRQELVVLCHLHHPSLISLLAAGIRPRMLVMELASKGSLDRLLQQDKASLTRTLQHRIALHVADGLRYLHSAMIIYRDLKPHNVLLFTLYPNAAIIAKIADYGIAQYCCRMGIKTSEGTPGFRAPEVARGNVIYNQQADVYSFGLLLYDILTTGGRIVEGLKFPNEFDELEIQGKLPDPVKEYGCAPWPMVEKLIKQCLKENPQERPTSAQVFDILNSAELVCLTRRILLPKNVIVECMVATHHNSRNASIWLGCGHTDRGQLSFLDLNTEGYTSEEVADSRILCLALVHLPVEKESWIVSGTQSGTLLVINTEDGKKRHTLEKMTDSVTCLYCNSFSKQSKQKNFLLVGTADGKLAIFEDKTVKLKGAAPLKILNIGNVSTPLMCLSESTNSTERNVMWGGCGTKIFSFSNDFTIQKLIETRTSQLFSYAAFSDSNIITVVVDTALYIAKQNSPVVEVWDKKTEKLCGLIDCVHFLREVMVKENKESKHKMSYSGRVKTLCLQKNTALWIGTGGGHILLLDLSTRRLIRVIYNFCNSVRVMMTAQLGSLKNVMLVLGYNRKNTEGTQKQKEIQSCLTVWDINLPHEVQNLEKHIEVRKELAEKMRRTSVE

| % LRRKtide phosphorylation relative to solvent [1] | Phosphorylation level relative to solvent (%) (cellular pS935 assay) (LRRK2 phospho-Ser935) | activity on LRRK2 kinase activity in vitro (in words) ([1]; no activity at 10 μM) | dephosphorylation of LRRK2 (Ser935) (LRRK2 phospho-Ser935; 5 μM, 2 h, SH-SY5Y) | Molecule | Cellular pS935 (% @ 5 μM) (LRRK2 phospho-Ser935; pS935 level as % of control, 5 μM for 2 h, SH-SY5Y cells with stable expression of LRRK2) |
| --- | --- | --- | --- | --- | --- |
| 3.50% | 76.71% | – | – | NCCNc1ncc(C(N)=O)c(Nc2cccc(C(F)(F)F)c2)n1 [Syk inhibitor II] | – |
| 94.81% | 121.09% | – | – | Fc1ccc(-c2nc3n(c2-c2ccncc2)CCS3)cc1 [SKF-86002] | – |
| 47.64% | 112.24% | – | – | CCc1[nH]c(-c2ccc(OC)cc2)nc1-c1ccncc1 [SB 202474] | – |
| 15.36% | 61.54% | – | – | Nc1ncnc2c1c(-c1ccc(Oc3ccccc3)cc1)cn2C1CCCC1 [Lck inhibitor] | – |
| 90.96% | 63.71% | – | – | CC(C)N(CCC(=O)c1ccc2ccccc2c1)Cc1ccccc1 [JAK3 inhibitor IV] | – |
| 3.34% | 73.51% | – | – | Cc1cc(Nc2nc(-c3ccccc3)nc3ccccc23)n[nH]1 [GSK-3 inhibitor XIII] | – |
| 83.96% and 44.16% | – | inactive | ~ 50% | O=C(Nc1cccc(Nc2nccc(Nc3cccc(C(F)(F)F)c3)n2)c1)C1CC1 [Aurora kinase inhibitor III] | – |
| 60.00% | 97.88% | – | – | NC(=O)c1ccc(-c2nc(-c3ccc4c(c3)OCCO4)c(-c3ccccn3)[nH]2)cc1 [Casein kinase I inhibitor, D4476, D4476] | – |
| 11.18% | 85.53% | – | – | Indirubin-3′-monoxime | – |
| 64.37% | 57.76% | – | – | O=C(Nc1cccc(Nc2cc(Nc3cccc(C(F)(F)F)c3)ncn2)c1)C1CC1 [EGFR inhibitor] | – |
| 86.09% | 103.28% | – | – | O=c1cc(-c2cccc3c2Sc2ccccc2S3)oc(N2CCOCC2)c1 [ATM kinase inhibitor] | – |
| 55.04% | 102.54% | – | – | N#Cc1cnc2cnc(NCc3cccnc3)cc2c1Nc1ccc(F)c(Cl)c1 [Tpl2 kinase inhibitor] | – |
| 13.54% | 122.47% | – | – | Nc1cccc(-c2cc3c(Oc4cccc(O)c4)ncnc3[nH]2)c1 [GSK-3b inhibitor XII, TWS119, TWS119] | – |
| 124.71% | 100.55% | – | – | N#C/C(=C(/N)SC1C=CC=CC1)c1cccc(C(O)c2ccncc2)c1 (centres unmarked) [MEK inhibitor I] | – |
| 97.07% | 77.12% | – | – | O=c1[nH][nH]c2nnc(-c3c(-c4ccccc4)nn4ccccc34)cc12 [ERK inhibitor II, negative control] | – |
| 17.20% | 84.73% | – | – | CN([C@@H](Cc1ccc(OS(=O)(=O)c2cccc3cnccc23)cc1)C(=O)N1CCN(c2ccccc2)CC1)S(=O)(=O)c1cccc2cnccc12 [KN-62] | – |
| 48.07% | 104.03% | – | – | Cc1nc(-c2ccccc2)c(-c2ccncc2)o1 [SC-68376] | – |
| 131.38% | 88.64% | – | – | O=C(NC(NC(=S)Nc1ccc(F)c([N+](=O)[O-])c1)C(Cl)(Cl)Cl)C(c1ccccc1)c1ccccc1 (centres unmarked) [ATM/ATR kinase inhibitor] | – |
| 32.34% | 87.77% | – | – | O=C1NC(=O)C(c2cn(CCCO)c3ncccc23)=C1c1cnccn1 [GSK-3b inhibitor XI] | – |
| 90.73% | 74.17% | – | – | O=c1cc(N2CCOCC2)oc2c(-c3ccccc3)cccc12 [LY 294002] | – |
| 81.86% | 69.18% | – | – | CC#CC(=O)Nc1cc2c(Nc3ccc(F)c(Cl)c3)ncnc2cn1 [EGFR/ErbB-2/ErbB-4 inhibitor] | – |
| 93.55% | 66.60% | – | – | PI 3-KbInhibitor II | – |
| 4.64% | 77.38% | – | – | O=C1NC(=O)c2c1c1c3ccccc3[nH]c1n1cncc21 [Isogranulatimide] | – |
| 68.41% | 71.78% | – | – | CC(=O)c1ccc(N2CCOCC2)cc1O [DNA-PK inhibitor III] | – |
| 86.06% | 81.93% | – | – | O=c1cc(N2CCOCC2)oc2c1ccc1ccccc12 [DNA-PK inhibitor II] | – |
| 119.82% | 84.54% | – | – | O=c1c2ccccc2[nH]c(=S)n1CCN1CCC(=C(c2ccc(F)cc2)c2ccc(F)cc2)CC1 [Diacylglycerol kinase inhibitor II] | – |

Second part, the molecule before the results:

| Molecule | % LRRKtide phosphorylation relative to solvent [1] | Phosphorylation level relative to solvent (%) (cellular pS935 assay) (LRRK2 phospho-Ser935) | activity on LRRK2 kinase activity in vitro (in words) ([1]; no activity at 10 μM) | dephosphorylation of LRRK2 (Ser935) (LRRK2 phospho-Ser935; 5 μM, 2 h, SH-SY5Y) | Cellular pS935 (% @ 5 μM) (LRRK2 phospho-Ser935; pS935 level as % of control, 5 μM for 2 h, SH-SY5Y cells with stable expression of LRRK2) |
| --- | --- | --- | --- | --- | --- |
| NC(=O)Nc1sc(-c2ccc(F)cc2)cc1C(N)=O [IKK-2 inhibitor IV] | 5.13% | 108.38% | – | – | – |
| O=C1c2ccccc2-c2n[nH]c3cccc1c23 [JNK inhibitor II] | 2.32% | 81.52% | – | – | – |
| CCCNC(=O)Nc1ccc(Oc2ncnc3cc(OC)c(OC)cc23)cc1Cl [KRN63] | 68.07% | 62.48% | – | – | – |
| Cc1cc2ncc(-c3ccccc3)nc2cc1C [AG 1295] | 89.08% | 49.08% | – | – | – |
| COC(=O)[C@@]1(O)C[C@H]2O[C@]1(C)n1c3ccccc3c3c4c(c5c6ccccc6n2c5c31)C(=O)NC4 [K-252a, Nocardiopsis sp., K-252a] | 1.13% | 72.18% | – | – | – |
| O=C(CCCc1ccc(-c2ccccc2F)cc1)Nc1ccc(O)cc1 [MK2a inhibitor] | 123.21% | 60.73% | – | – | – |
| CNc1cc2c(Nc3cccc(Br)c3)ncnc2cn1 [PD 158780] | 6.06% | 80.85% | – | – | – |
| O=C1Cc2c([nH]c3ccc([N+](=O)[O-])cc23)-c2ccccc2N1 [Alsterpaullone] | 31.34% | 108.54% | – | – | – |
| cFMS receptor tyrosine kinase inhibitor | 110.22% | 60.62% | – | – | – |
| CC(C)(C)c1cc(C=C(C#N)C#N)cc(Br)c1O [AG 1024] | 51.38% | 94.37% | – | – | – |
| O=C1Cc2c([nH]c3ccc(Br)cc23)-c2ccccc2N1 [Kenpaullone] | 47.16% | 94.10% | – | – | – |
| COc1cccc(-c2cc(=O)c3ccccc3o2)c1N [PD98059] | 92.53% | 106.55% | – | – | – |
| COc1ccc2c(c[n+](C)c3c4cc5c(cc4ccc23)OCO5)c1OC [Chelerythrine chloride] | 77.91% | 67.25% | – | – | – |
| CN[C@@H]1C[C@H]2O[C@@](C)([C@@H]1OC)n1c3ccccc3c3c4c(c5c6ccccc6n2c5c31)C(=O)NC4 [Staurosporine, Streptomyces sp., Staurosporine] | – | – | – | – | 8.89% |
| CCOc1nc(NC(=O)Cc2cc(OC)ccc2OC)cc(N)c1C#N [JNK inhibitor VIII] | 105.45% | 93.08% | – | – | – |
| Cc1ccc(NC2=CC(=O)c3sc(C)nc3C2=O)cc1 [Cdk4 inhibitor III] | 26.80% | 48.63% | – | – | – |
| O=C1Nc2ccc(Cl)cc2/C1=C/c1cc(Cl)c(O)c(Cl)c1 [PKR inhibitor, negative control] | 1.07% | 72.69% | – | – | – |
| O=C(O)/C=C/c1cc(Br)c(Br)c(Br)c1Br [Casein kinase II inhibitor III, TBCA, TBCA] | 16.78% | 116.47% | – | – | – |
| COc1ccc(CNC(=O)Nc2ncc([N+](=O)[O-])s2)cc1 [GSK-3b inhibitor VIII] | 128.15% | 115.21% | – | – | – |
| O=C1NC(=O)c2c1c1c3ccccc3[nH]c1c1[nH]c3cc(Br)ccc3c21 [Cdk4 inhibitor] | 6.82% | 49.88% | – | – | – |
| Nc1ncnc2n[nH]c(Nc3ccc(F)cc3)c12 [MNK1 inhibitor] | 12.59% | 70.32% | – | – | – |
| N/C(=N\[N+](=O)[O-])N/N=C\c1ccc(-c2cccc([N+](=O)[O-])c2)o1 [ERK inhibitor III] | 55.32% | 90.93% | – | – | – |
| O=C(Nc1ccc(Cl)cc1)c1ccccc1NCc1ccncc1 [VEGF receptor tyrosine kinase inhibitor II] | 91.34% | 65.97% | – | – | – |
